From ChEMBL document CHEMBL1944551, “An integrated computational workflow for efficient and quantitative modeling of renin inhibitors” (Bioorg Med Chem, 2012)

assay: physchem; settings: octanol/buffer

Question: With COCCCc1cc(CN(C(=O)[C@H]2CNCC(=O)N2c2ccc(OCCOc3c(Cl)cc(C)cc3Cl)nc2)C2CC2)c(Cl)c[n+]1[O-] as the compound, how does the logP read?
Answer: Its logP is 4.61.

Question: Which logP does the source give for CNC(=O)OCCc1ccc(Cl)c(CN(C(=O)[C@H]2CNCC(=O)N2c2cnc(OCCCOCc3ccccc3OC)nc2)C2CC2)c1 here?
Answer: Its logP is 2.88.

Question: With COc1ccccc1COCCCOc1ccc(N2C(=O)CNC[C@@H]2C(=O)N(Cc2cc(CCNC3CC3)ccc2Cl)C2CC2)cc1 as the compound, how does the logP read?
Answer: Its logP is 5.62.

Question: Which logP does the source give for CCNCCc1ccc(Cl)c(CN(C(=O)[C@H]2CNCC(=O)N2c2ccc(CCCOc3cccc(Cl)c3)cc2)C2CC2)c1 here?
Answer: The logP was 6.15.

Question: With COc1cccc(CN(C(=O)[C@H]2CNCC(=O)N2c2ccc(CCCOc3cccc(Cl)c3)cc2)C2CC2)c1C as the compound, how does the logP read?
Answer: The logP was 5.56.

Question: Which logP does the source give for Cc1cc(Cl)c(OCCOc2ccc(N3C(=O)CNC[C@@H]3C(=O)N(Cc3cc(CC(=O)NC4CC4)ccc3Cl)C3CC3)cc2)c(Cl)c1 here?
Answer: The logP was 5.91.

Question: For CN(Cc1ccccc1Cl)C(=O)[C@H]1CNCC(=O)N1c1ccc(OCCCOCc2ccccc2)cc1, which logP is on record?
Answer: Its logP is 4.45.

Question: With CNC(=O)OCc1ccc(Cl)c(CN(C(=O)[C@H]2CNCC(=O)N2c2ccc(OCCCOCc3ccccc3)cc2)C2CC2)c1 as the compound, how does the logP read?
Answer: Its logP is 4.85.

Question: With O=C(OCc1ccc(N2C(=O)CNC[C@@H]2C(=O)N(Cc2ccccc2Cl)C2CC2)cc1)c1ccccc1 as the compound, how does the logP read?
Answer: The logP was 4.73.

Question: With O=C(OCc1ccc(N2C(=O)CNC[C@@H]2C(=O)N(Cc2ccc(Cl)cc2)C2CC2)cc1)c1ccccc1 as the compound, how does the logP read?
Answer: The logP was 4.73.

Question: With Cc1cc(Cl)c(OCCOc2ccc(N3C(=O)CNC[C@@H]3C(=O)N(Cc3ccccc3Cl)C3CC3)cn2)c(Cl)c1 as the compound, how does the logP read?
Answer: The logP was 5.

Question: Which logP does the source give for CNC(=O)CCc1ccc(Cl)c(CN(C(=O)[C@H]2CNCC(=O)N2c2ccc(OCCCOCc3ccccc3OC)cc2)C2CC2)c1 here?
Answer: The logP was 4.57.

Question: For CNC(=O)Cc1ccc(Cl)c(CN(C(=O)[C@H]2CNCC(=O)N2c2cnc(OCCCOCc3ccccc3OC)nc2)C2CC2)c1, which logP is on record?
Answer: Its logP is 2.47.

Question: For CNC(=O)OCc1ccc(Cl)c(CN(C(=O)[C@H]2CNCC(=O)N2c2cnc(OCCCOCc3ccccc3OC)nc2)C2CC2)c1, which logP is on record?
Answer: Its logP is 2.8.

Question: For CNC(=O)Cc1ccc(Cl)c(CN(C(=O)[C@H]2CNCC(=O)N2c2ccc(CCCOc3c(F)ccc(F)c3F)cc2)C2CC2)c1, which logP is on record?
Answer: The logP was 5.15.

Question: With O=C(OCc1ccc(N2C(=O)CNC[C@@H]2C(=O)N(Cc2cc(CNCCF)ccc2Cl)C2CC2)cc1)c1ccccc1 as the compound, how does the logP read?
Answer: The logP was 4.66.

Question: With COc1cccc(CN(C(=O)[C@H]2CNCC(=O)N2c2ccc(OCCCOCc3ccccc3)cc2)C2CC2)c1C as the compound, how does the logP read?
Answer: The logP was 4.76.

Question: Which logP does the source give for COc1cccc(CN(C(=O)[C@H]2CNCC(=O)N2c2ccc(OCCOc3c(Cl)cc(C)cc3Cl)cc2)C2CC2)c1C here?
Answer: Its logP is 5.49.

Question: For CNCCc1ccc(Cl)c(CN(C(=O)[C@H]2CNCC(=O)N2c2ccc(OCCCOCc3ccccc3)cc2)C2CC2)c1, which logP is on record?
Answer: The logP was 5.01.

Question: For COc1ccccc1COCCCOc1ncc(N2C(=O)CNC[C@@H]2C(=O)N(Cc2cc(CNC(C)=O)ccc2Cl)C2CC2)cn1, which logP is on record?
Answer: The logP was 2.51.

Question: With CCNCc1ccc(Cl)c(CN(C(=O)[C@H]2CNCC(=O)N2c2ccc(OCCCOCc3ccccc3)cc2)C2CC2)c1 as the compound, how does the logP read?
Answer: Its logP is 5.26.

Question: For O=C(CC(F)(F)F)NCc1ccc(Cl)c(CN(C(=O)[C@H]2CNCC(=O)N2c2ccc(OCCCOCc3ccccc3)cc2)C2CC2)c1, which logP is on record?
Answer: The logP was 5.29.

Question: Which logP does the source give for COc1ccccc1COCCCOc1ccc(N2C(=O)CNC[C@@H]2C(=O)N(C)Cc2ccccc2Cl)cc1 here?
Answer: The logP was 4.41.

Question: Which logP does the source give for O=C([C@H]1CNCC(=O)N1c1ccc(CCCOc2cccc(Cl)c2)cc1)N(Cc1cccc(Cl)c1)C1CC1 here?
Answer: Its logP is 5.94.

Question: For CN(CCCc1ccccc1)C(=O)[C@H]1CNCC(=O)N1c1ccc(CCCOc2c(F)ccc(F)c2F)cc1, which logP is on record?
Answer: The logP was 5.01.

Question: Which logP does the source give for O=C(CC(F)(F)F)NCCc1ccc(Cl)c(CN(C(=O)[C@H]2CNCC(=O)N2c2ccc(COC(=O)c3ccccc3)cc2)C2CC2)c1 here?
Answer: The logP was 5.

Question: Which logP does the source give for CNC(=O)Cc1ccc(Cl)c(CN(C(=O)[C@H]2CNCC(=O)N2c2ccc(CCCOc3cccc(Cl)c3)cc2)C2CC2)c1 here?
Answer: Its logP is 5.33.

Question: Which logP does the source give for COC(=O)NCCc1ccc(Cl)c(CN(C(=O)[C@H]2CNCC(=O)N2c2ccc(CCCOc3c(F)ccc(F)c3F)cc2)C2CC2)c1 here?
Answer: The logP was 5.56.

Question: With COc1ccccc1COCCCOc1ccc(N2C(=O)CNC[C@@H]2C(=O)N(Cc2cc(CNCC(F)F)ccc2Cl)C2CC2)cc1 as the compound, how does the logP read?
Answer: Its logP is 5.29.
